Test results published in patent USRE48461E1, “Modulation of androgen receptor expression” (Ionis Pharmaceuticals, Inc., priority 2012, dated 2021).

What was measured:
Type in all cases: cell-based, human
AR mRNA [1] = assay: Time-course AR mRNA expression in C4-2B cells (8, 24, 48 hours); conditions: for Percent expression of AR compared to the control group in 8 hours / Percent expression of AR compared to the control group in 48 hours / Percent expression of AR compared to the control group in 24 hours: C4-2B cells
Procedure: C4-2B cells were plated at 1,000 cells per well in complete medium. […] After a treatment period of 8 hours, 24 hours, and 48 hours, AR expression was measured with primer probe set hAR-LTS00943.

TMPRSS2 mRNA = assay: Time-course TMPRSS2 expression in C4-2B cells
In short: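 C4-2B cells at 1,000/well in complete medium, treated with antisense oligonucleotide; ISIS 549148 as negative control. PSA and TMPRSS2 mRNA measured after 8, 24 and 48 h, given as percent inhibition relative to non-treated cells.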

AR mRNA [2] = assay: AR RNA expression in LNCaP cells (complete, CSS, CSS+DHT medium); conditions: for Percent expression of AR in LNCaP cells cultured in CSS + DHT medium: CSS + DHT (1 nM) medium; for Percent expression of AR in LNCaP cells cultured in CSS + DHT medium / Percent expression of AR in LNCaP cells cultured in CSS medium: 48 hrs; for Percent expression of AR in LNCaP cells cultured in complete medium: 48 hours
PSA mRNA = assay: PSA expression in C4-2 cells; conditions: 48 hrs; for Percent inhibition of PSA expression: C4-2 cells, CSS + DHT medium
Procedure: Cells were plated at 1,000 cells per well. […] After an incubation period of 48 hrs, RNA levels of AR, PSA and TMPRSS2 were measured.
Cells were plated at 2,000 cells per well and cultured in CSS media with 1 nM DHT. […] After an incubation period of 48 hrs, RNA levels of AR, PSA and TMPRSS2 were measured.

AR mRNA [3] = assay: AR RNA expression in C4-2B cells (complete, CSS+DHT medium; Example 30); conditions: 48 hrs
In short: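 C4-2B cells were plated at 1,000 cells per well in complete medium, or at 2,000 cells per well in CSS medium with 1 nM DHT. ISIS 549148 served as the negative control. AR, PSA and TMPRSS2 RNA levels were measured after 48 hrs.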

AR V7 variant mRNA = assay: AR V7 variant RNA in 22RV1 cells; conditions: RNAiMax, 48 hrs
22RV1 cells = assay: 22RV1 apoptosis (Caspase-glo 3/7); conditions: 72 hours; for Apoptosis (% untreated control): 22RV1 cells
Procedure: After a treatment period of 72 hours in complete medium or CSS+DHT medium, apoptosis of the cancer cells was measured with Caspase-glo 3/7 assay kit (Promega). Results are presented in Tables 131 and 132 as percent apoptosis of the cells, relative to non-treated cells.

TGATTTAATGGTTGCA [ISIS 569236] (cEt/MOE gapmer chemistry, further chemistry not given here) [targets intron 1]
Percent expression of AR compared to the control group in 8 hours (AR mRNA [1]; 0.04 μM): 100%
Percent expression of AR compared to the control group in 48 hours (AR mRNA [1]; 0.04 μM): 80%
Percent expression of AR compared to the control group in 8 hours (AR mRNA [1]; 0.2 μM): 87%
Percent expression of AR compared to the control group in 24 hours (AR mRNA [1]; 0.2 μM): 35%
Percent expression of AR compared to the control group in 48 hours (AR mRNA [1]; 0.2 μM): 19%
Percent expression of AR compared to the control group in 8 hours (AR mRNA [1]; 1 μM): 84%
Percent expression of AR compared to the control group in 24 hours (AR mRNA [1]; 1 μM): 15%
Percent expression of AR compared to the control group in 48 hours (AR mRNA [1]; 1 μM): 7%
Percent expression of AR compared to the control group in 8 hours (AR mRNA [1]; 5.0 μM): 58%
Percent expression of AR compared to the control group in 24 hours (AR mRNA [1]; 5.0 μM): 5%
Percent expression of AR compared to the control group in 48 hours (AR mRNA [1]; 5.0 μM): 2%
AR expression (AR mRNA [1]; C4-2B cells, 8, 24 and 48 hours): reduced AR expression in the cells relative to the control set
Percent inhibition of TMPRSS2 expression compared to the control group in 8 hours (TMPRSS2 mRNA; 0.04 μM): 0%
Percent inhibition of TMPRSS2 expression compared to the control group in 24 hours (TMPRSS2 mRNA; 0.04 μM): 10%
Percent inhibition of TMPRSS2 expression compared to the control group in 48 hours (TMPRSS2 mRNA; 0.04 μM): 22%
Percent inhibition of TMPRSS2 expression compared to the control group in 8 hours (TMPRSS2 mRNA; 0.2 μM): 0%
Percent inhibition of TMPRSS2 expression compared to the control group in 24 hours (TMPRSS2 mRNA; 0.2 μM): 32%
Percent inhibition of TMPRSS2 expression compared to the control group in 48 hours (TMPRSS2 mRNA; 0.2 μM): 57%
Percent inhibition of TMPRSS2 expression compared to the control group in 8 hours (TMPRSS2 mRNA; 1 μM): 0%
Percent inhibition of TMPRSS2 expression compared to the control group in 24 hours (TMPRSS2 mRNA; 1 μM): 57%
Percent inhibition of TMPRSS2 expression compared to the control group in 48 hours (TMPRSS2 mRNA; 1 μM): 70%
Percent inhibition of TMPRSS2 expression compared to the control group in 8 hours (TMPRSS2 mRNA; 5.0 μM): 0%
Percent inhibition of TMPRSS2 expression compared to the control group in 24 hours (TMPRSS2 mRNA; 5.0 μM): 66%
Percent inhibition of TMPRSS2 expression compared to the control group in 48 hours (TMPRSS2 mRNA; 5.0 μM): 75%
TMPRSS2 expression (TMPRSS2 mRNA; time course): reduced PSA and TMPRSS2 expression in the cells relative to the control set at the 24 hr and 48 hr time points
Percent expression of AR in LNCaP cells cultured in CSS + DHT medium (AR mRNA [2]; 0.04 μM): 104%
Percent expression of AR in LNCaP cells cultured in CSS + DHT medium (AR mRNA [2]; 0.2 μM): 86%
Percent expression of AR in LNCaP cells cultured in CSS + DHT medium (AR mRNA [2]; 1 μM): 55%
Percent expression of AR in LNCaP cells cultured in CSS + DHT medium (AR mRNA [2]; 5.0 μM): 21%
Percent expression of AR in LNCaP cells cultured in CSS medium (AR mRNA [2]; 0.04 μM): 94%
Percent expression of AR in LNCaP cells cultured in CSS medium (AR mRNA [2]; 0.2 μM): 66%
Percent expression of AR in LNCaP cells cultured in CSS medium (AR mRNA [2]; 1 μM): 35%
Percent expression of AR in LNCaP cells cultured in CSS medium (AR mRNA [2]; 5.0 μM): 13%
Percent expression of AR in LNCaP cells cultured in complete medium (AR mRNA [2]; 0.04 μM): 98%
Percent expression of AR in LNCaP cells cultured in complete medium (AR mRNA [2]; 0.2 μM): 90%
Percent expression of AR in LNCaP cells cultured in complete medium (AR mRNA [2]; 1 μM): 47%
Percent expression of AR in LNCaP cells cultured in complete medium (AR mRNA [2]; 5.0 μM): 20%
Percent inhibition of PSA expression (PSA mRNA; 0.04 μM): 0%
Percent inhibition of PSA expression (PSA mRNA; 0.2 μM): 4%
Percent inhibition of PSA expression (PSA mRNA; 1 μM): 57%
Percent inhibition of PSA expression (PSA mRNA; 5.0 μM): 64%
Percent inhibition of PSA expression in C4-2 cells cultured in complete medium (PSA mRNA; 0.04 μM): 35%
Percent inhibition of PSA expression in C4-2 cells cultured in complete medium (PSA mRNA; 0.2 μM): 62%
Percent inhibition of PSA expression in C4-2 cells cultured in complete medium (PSA mRNA; 1 μM): 83%
Percent inhibition of PSA expression in C4-2 cells cultured in complete medium (PSA mRNA; 5.0 μM): 88%
Percent expression of AR (AR mRNA [3]; CSS + DHT medium, 0.04 μM): 67%
Percent expression of AR (AR mRNA [3]; CSS + DHT medium, 0.2 μM): 49%
Percent expression of AR (AR mRNA [3]; CSS + DHT medium, 1 μM): 24%
Percent expression of AR (AR mRNA [3]; CSS + DHT medium, 5.0 μM): 19%
Percent expression of AR (AR mRNA [3]; complete medium, 0.04 μM): 61%
Percent expression of AR (AR mRNA [3]; complete medium, 0.2 μM): 23%
Percent expression of AR (AR mRNA [3]; complete medium, 1 μM): 20%
Percent expression of AR (AR mRNA [3]; complete medium, 5.0 μM): 16%
Percent inhibition of AR V7 variant (AR V7 variant mRNA; CSS + DHT medium, 1.34 nM): 54%
Percent inhibition of AR V7 variant (AR V7 variant mRNA; CSS + DHT medium, 4.0 nM): 88%
Percent inhibition of AR V7 variant (AR V7 variant mRNA; CSS + DHT medium, 13.4 nM): 97%
Percent inhibition of AR V7 variant (AR V7 variant mRNA; complete medium, 1.34 nM): 30%
Percent inhibition of AR V7 variant (AR V7 variant mRNA; complete medium, 4.0 nM): 2%
Percent inhibition of AR V7 variant (AR V7 variant mRNA; complete medium, 13.4 nM): 46%
Percent inhibition of AR V7 variant (AR V7 variant mRNA; complete medium, 40 nM): 81%
Apoptosis (% untreated control) (22RV1 cells; CSS + DHT medium, 1.34 nM): 127 % untreated control
Apoptosis (% untreated control) (22RV1 cells; CSS + DHT medium, 4.0 nM): 106 % untreated control
Apoptosis (% untreated control) (22RV1 cells; CSS + DHT medium, 13.4 nM): 257 % untreated control
Apoptosis (% untreated control) (22RV1 cells; CSS + DHT medium, 40 nM): 1136 % untreated control
Apoptosis (% untreated control) (22RV1 cells; complete medium, 1.34 nM): 91 % untreated control
Apoptosis (% untreated control) (22RV1 cells; complete medium, 4.0 nM): 141 % untreated control
Apoptosis (% untreated control) (22RV1 cells; complete medium, 13.4 nM): 333 % untreated control
Apoptosis (% untreated control) (22RV1 cells; complete medium, 40 nM): 1452 % untreated control
apoptosis of 22RV1 cells (22RV1 cells; complete or CSS+DHT medium): increased apoptosis of the cells in a dose dependent compared to the control
